{"source": "paper PMC10385865", "about": "“Synthesis and Anticancer Activity of Novel Dual Inhibitors of Human Protein Kinases CK2 and PIM-1” (Pharmaceutics, 2023)", "key": {"[1]": {"test_system": "CCRF-CEM (acute lymphoblastic leukemia)", "test": "MTT-based viability assay, CCRF-CEM", "format": "cell-based, human", "conditions": "for IC50: Homo sapiens, CCRF-CEM, 48 h, read-out: IC50 CCRF-CEM", "protocol": "(§1) After incubation with the tested compounds, an MTT test was performed as described previously. Optical densities were measured at 570 nm using a BioTek microplate reader (BioTek Instruments, Inc., Winooski, VT, USA). All measurements were carried out in a minimum of three biological replicates.\n(§2) . The IC50 values describing the half-maximal effective concentration of each tested compound were calculated and are summarized in Table 2. […]."}, "MCF-7 cells": {"test_system": "MCF-7 cells", "test": "Cell cycle progression by flow cytometry (PI), MCF-7", "format": "cell-based, human", "conditions": "MCF-7, 48 h", "protocol": "MCF-7, CCRF-CEM, and K-562 cells were cultured in 6-well plates and treated with the tested compounds for 48 h. After exposure to the compounds, the cells were collected and washed with cold PBS and fixed at −20 °C in 70% ethanol for at least 24 h. Subsequently, cells were washed in PBS and stained with 50 μg/mL PI (propidium iodide) and 100 μg/mL RNase solution in PBS supplemented with 0.1% v/v Triton X-100 for 30 min in the dark at RT. Cellular DNA content was determined by flow cytometry employing a BD FACSCanto II flow cytometer (BD Biosciences, San Jose, CA, USA). The obtained DNA histograms were analyzed using MacCycle software (Phoenix Flow Systems, San Diego, CA, USA) for evaluation of the distribution of the cells in different phases of the cell cycle.\nSince CK2 controls cell cycle progression and, consequently, its inhibition can affect the distribution of cells in the individual phases of the cell cycle, we tested the cell cycle progression in CCRF-CEM, K-562, and MCF-7 cells after treatment with 4 and rac-6. Representative plots DNA histograms with the calculations of cell percentages in each phase of the cell cycle are depicted in Figure 7. […] Accumulation of cells in sub-G1 indicates DNA degradation, as often seen in apoptotic cells, confirming the results obtained with annexin V and PI staining."}, "CCRF-CEM cells": {"test_system": "CCRF-CEM cells", "test": "Annexin V/propidium iodide apoptosis, flow cytometry, CCRF-CEM", "conditions": "48 h; for Early apoptosis / Late apoptosis / Necrosis: mean±SD; for viability at 5 µM / viability at 10 µM: Homo sapiens, read-out: Viable", "experimental": "MCF-7 cells were seeded in 6-well plates at 1.2 × 10^5 cells/well, whereas CCRF-CEM and K-562 cells were seeded in 24-well plates at a density of 2 × 10^5/mL. Cells were treated with the tested compounds used in 5 µM and 10 µM concentrations. Then, the plates were incubated for 48 h. After exposure to the examined compounds, the cells were collected and centrifugated at 200× g at 4 °C for 5 min, washed twice in cold phosphate-buffered saline (PBS), and subsequently suspended in binding buffer at 1 × 10^6 cells/mL. Subsequently, 100-μL aliquots of the cell suspension were labeled according to the instructions of the respective manufacturer’s kit. Briefly, annexin V-fluorescein isothiocyanate and propidium iodide (BD Biosciences, Pharmingen, San Diego, CA, USA) were added to the cell suspension, and the mixture was vortexed, then incubated for 15 min at RT in the dark. A cold binding buffer (400 μL) was then added, and the cells were vortexed again and kept on ice. Flow cytometric measurements were performed within 1 h after labeling. Viable, necrotic, early, and late apoptotic cells were detected by flow cytometry using a BD FACSCanto II flow cytometer and analyzed using BD FACSDiva operating software (BD Biosciences, San Jose, CA, USA)."}, "PIM-1": {"molecular_target": "T1, PIM-1 (Homo sapiens, UniProt P11309)", "T1 construct": "made in house", "T1 sequence (P11309 whole entry)": "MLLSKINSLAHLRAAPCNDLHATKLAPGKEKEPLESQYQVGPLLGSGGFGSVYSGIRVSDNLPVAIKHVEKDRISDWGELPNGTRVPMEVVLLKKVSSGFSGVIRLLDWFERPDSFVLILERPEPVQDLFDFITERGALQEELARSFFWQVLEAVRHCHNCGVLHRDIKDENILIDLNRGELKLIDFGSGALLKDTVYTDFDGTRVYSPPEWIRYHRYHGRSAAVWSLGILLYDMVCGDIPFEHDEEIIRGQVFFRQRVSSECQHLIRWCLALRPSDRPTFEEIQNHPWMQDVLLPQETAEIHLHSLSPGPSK", "test": "P81 filter isotopic (radiometric) kinase assay, PIM-1", "format": "biochemical", "conditions": "substrate peptide […], Ki from IC50 by Cheng–Prusoff", "protocol": "The obtained compounds were tested for their inhibitory activity toward human CK2α, human CK2 holoenzyme, and PIM-1 using a P81 filter isotopic assay as described previously. […] The experimental data were fitted to the sigmoidal dose–response equation, i.e., (variable slope) Y = Bottom + (Top-Bottom)/(1 + 10^((LogIC50−X)∗HillSlope), in GraphPad Prism (Prism 9, v. 9.0.1).\nInhibition of the human CK2 catalytic subunit (CK2α), CK2 holoenzyme (CK2α2β2), and PIM-1 by the newly obtained compounds was evaluated using a radiometric assay (Table 1, Figure S2). The synthetic peptide […] was used as the substrate of CK2, and peptide […] was used as the substrate of PIM-1. The values of the inhibition constant (Ki) were calculated using the Cheng–Prusoff equation: Ki = IC50/(1 + [S]/Km)."}, "K-562 cells": {"test_system": "K-562 cells", "test": "Acridine orange staining, microscopy and fluorescence intensity assay (autophagy)", "format": "cell-based, human", "conditions": "for induction of autophagy (in words): BCR-ABL-positive CML cell line K-562, 48 h; for red fluorescence (red-stained lysosomes), AO, % of the control: K-562, 48 h, 4 at both concentrations, rac-6 at 15 µM, not statistically significant", "protocol": "K-562 cells were seeded in 6-well plates at 2.5 × 10^5/mL and subjected to the tested compounds. After 48 h of incubation, cells were centrifugated at 200× g at 4 °C for 5 min, subsequently suspended in PBS containing 2 µg/mL AO and Hoechst 33342, and incubated at 37 °C for 20 min in the dark. Subsequently, cells were centrifugated at 200× g at 4 °C for 5 min. Then, 5 µL of the sample was mounted on a glass slide and covered with a coverslip and examined under a Nikon ECLIPSE Y-TV55 fluorescent microscope.\nK-562 cells were seeded in 6-well plates at 2.5 × 10^5/mL and subjected to the tested compounds. After 48 h of incubation, cells were centrifugated at 200× g at 4 °C for 5 min, subsequently suspended in PBS containing 2 µg/mL AO and Hoechst 33342, and incubated at 37 °C for 20 min in the dark. Subsequently, cells were centrifugated at 200× g at 4 °C for 5 min, and 150 µL of the sample was measured on dark plates (Sarstedt). The fluorescence intensity of AO at Ex. 502 nm/Em. 520–524 nm (aggregated or DNA complexed form), Ex. 457 nm/Em. 630–644 nm (aggregated or RNA complexed form), Ex. 540 nm/Em. 640–660 nm (red-stained lysosomes), and Ex. 488 nm/Em. 540–550 nm (yellowish stained lysosomes) and that of Hoechst (nuclei, Ex. 361 nm/Em. 497 nm) in K-562 cells was measured with a Synergy H4 Hybrid Multi-Mode Microplate Reader (BioTek Instruments, Inc., Winooski, VT, USA). The data were normalized to the intensity of Hoechst (nuclei, Ex. 361 nm/Em. 497 nm) in comparison to control cells serving as the reference point, showing 100%.\nIn order to conclude the mechanism of death of K-562 cells treated with the tested active agents, microscopic observations and a fluorescence intensity assay were performed after staining the cells with an acridine orange (AO). The employed dye is a cell-permeable fluorophore that can be protonated and trapped in acidic vesicular organelles (AVOs). Its metachromatic shift to red fluorescence is concentration-dependent, and therefore, acridine orange fluoresces red in AVOs, such as autolysosomes, can be detected quantitatively. In addition, OA has the ability to intercalate between the nitrogenous bases of the nucleic acids present in cells and their labeling. DNA or RNA is digested during the autophagy process, and the resulting damage makes it easier to bind with OA molecules.\nAfter 48 h of treatment with 4 and rac-6, K-562 cells, were subjected to staining with Hoechst (nuclei staining) and AO, followed by fluorescent microscopy and a fluorescence intensity measurement. […] Since the obtained microscopic data were inconclusive, we additionally measured fluorescence intensity of AO at four different wavelengths, i.e., Ex. 502 nm/Em. 520–524 nm (aggregated or DNA complexed form), Ex. 457 nm/Em. 630–644 nm (aggregated or RNA complexed form), Ex. 540 nm/Em. 640–660 nm (red-stained lysosomes), and Ex. 488 nm/Em. 540–550 nm (yellowish stained lysosomes) (Figure 6b)."}, "[2]": {"test_system": "K-562 (chronic myelogenous leukemia)", "test": "MTT-based viability assay, K-562", "format": "cell-based, human", "conditions": "for IC50: Homo sapiens, read-out: IC50 K-562", "protocol": "as §1, §2"}}, "note": "Read-outs that look alike come from different tables or passages of the source."}
{"compound": "CN(C)c1nc2c(Br)c(Br)c(Br)c(Br)c2[nH]1", "note": "[Compound 4, 4,5,6,7-Tetrabromo-N,N-dimethyl-1H-benzimidazol-2-amine, reference compound]", "values": [{"measurement": "IC50", "setting": "[1]", "value": "18.9 ± 0.88", "unit": "µM"}, {"measurement": "cell cycle arrest (phase, in words)", "setting": "MCF-7 cells", "value": "S-phase arrest"}, {"measurement": "Early apoptosis", "setting": "CCRF-CEM cells; 5 µM", "value": "1.65±0.78", "unit": "%"}, {"measurement": "Late apoptosis", "setting": "CCRF-CEM cells; 5 µM", "value": "13.55±0.35", "unit": "%"}, {"measurement": "Necrosis", "setting": "CCRF-CEM cells; 5 µM", "value": "1.45±0.07", "unit": "%"}, {"measurement": "Early apoptosis", "setting": "CCRF-CEM cells; 10 µM", "value": "1.55±0.07", "unit": "%"}, {"measurement": "Late apoptosis", "setting": "CCRF-CEM cells; 10 µM", "value": "16.75±0.21", "unit": "%"}, {"measurement": "Necrosis", "setting": "CCRF-CEM cells; 10 µM", "value": "1.35±0.49", "unit": "%"}, {"measurement": "viability at 5 µM", "setting": "CCRF-CEM cells", "value": "83.3 ± 0.57", "unit": "%"}, {"measurement": "viability at 10 µM", "setting": "CCRF-CEM cells", "value": "80.35 ± 0.78", "unit": "%"}, {"measurement": "Ki", "setting": "PIM-1", "value": 0.052, "unit": "µM"}, {"measurement": "induction of autophagy (in words)", "setting": "K-562 cells", "value": "able to induce autophagy"}, {"measurement": "red fluorescence (red-stained lysosomes), AO, % of the control", "setting": "K-562 cells", "value": "up to 148 % of the control"}, {"measurement": "IC50", "setting": "[2]; K562, 48 h", "value": "22.5 ± 6.09", "unit": "µM"}]}
{"compound": "OC(CNc1nc2c(Br)c(Br)c(Br)c(Br)c2[nH]1)C(F)(F)F", "note": "(racemic) [rac-6, 1,1,1-Trifluoro-3-[(4,5,6,7-tetrabromo-1H-benzimidazol-2-yl)amino]propan-2-ol]", "values": [{"measurement": "IC50", "setting": "[1]; MTT", "value": "11.8 ± 0.4", "unit": "µM"}, {"measurement": "SI (selectivity index) CCRF-CEM", "setting": "[1]; IC50 Vero/IC50 cancer cells", "value": 1.72}, {"measurement": "cell cycle arrest (phase, in words)", "setting": "MCF-7 cells", "value": "G1-phase arrest"}, {"measurement": "Early apoptosis", "setting": "CCRF-CEM cells; 5 µM", "value": "2.75±0.07", "unit": "%"}, {"measurement": "Late apoptosis", "setting": "CCRF-CEM cells; 5 µM", "value": "18.85±3.61", "unit": "%"}, {"measurement": "Necrosis", "setting": "CCRF-CEM cells; 5 µM", "value": "2.45±0.07", "unit": "%"}, {"measurement": "cells in early and late apoptosis", "setting": "CCRF-CEM cells; 10 µM", "value": 47, "unit": "%"}, {"measurement": "Early apoptosis", "setting": "CCRF-CEM cells; 10 µM", "value": "2.30±0.42", "unit": "%"}, {"measurement": "Late apoptosis", "setting": "CCRF-CEM cells; 10 µM", "value": "44.05±4.03", "unit": "%"}, {"measurement": "Necrosis", "setting": "CCRF-CEM cells; 10 µM", "value": "5.00±1.41", "unit": "%"}, {"measurement": "viability at 5 µM", "setting": "CCRF-CEM cells", "value": "76 ± 3.75", "unit": "%"}, {"measurement": "viability at 10 µM", "setting": "CCRF-CEM cells", "value": "48.6 ± 2.26", "unit": "%"}, {"measurement": "Ki", "setting": "PIM-1", "value": 0.067, "unit": "µM"}, {"measurement": "induction of autophagy (in words)", "setting": "K-562 cells", "value": "able to induce autophagy"}, {"measurement": "red fluorescence (in words)", "setting": "K-562 cells; K-562, 10 µM, 48 h", "value": "reduced"}, {"measurement": "yellowish-stained lysosomes, AO fluorescence, % of the control", "setting": "K-562 cells; K-562, 15 µM, 48 h, Ex. 488 nm/Em. 540–550 nm, normalized to Hoechst", "value": "324 % of the control"}, {"measurement": "red fluorescence (red-stained lysosomes), AO, % of the control", "setting": "K-562 cells", "value": "up to 148 % of the control"}, {"measurement": "IC50", "setting": "[2]; K562, MTT, 48 h", "value": "17.7 ± 3.54", "unit": "µM"}, {"measurement": "SI (selectivity index) K-562", "setting": "[2]; IC50 Vero/IC50 cancer cells", "value": 1.15}]}
